# Patent US20080070987A1, “META-XYLYLENEDIAMINE VANADATE SALTS” (priority 2006, published 2008)
# Experiments:
# [1] = system: streptozotocin-induced diabetic rats; assay: Chronic oral treatment of streptozotocin-induced diabetic rats, glycemia; assay type: in vivo, rat; details: for glycemia: oral, after the dosage increase to 10 μmol/kg/day; for effect on glycemia over the whole oral treatment, in words: streptozotocin (45 mg/kg) diabetic rats, daily oral administration for 17 days
# Experimental: FIG. 4 is a graphical illustration of the chronic and oral treatment with hexaquis(benzylammonium) decavanadate on glycemia of diabetic rats by estreptozotocine. In FIG. 4, [G] corresponds to the blood concentration of glucose (expressed in mg/dl) measured at different days of treatment (t/d). Diabetic rats were treated with a single daily oral dose of hexaquis(benzylammonium) decavanadate (5 μmol/kg/day between day 0 and day 7 marked with an arrow, and 10 μmol/kg/day from 7 days of treatment) (black squares) or with identical dose of sodium decavanadate (black diamonds). Glycemia in non-diabetic rats is also represented in the figure (black triangles).
# Diabetes was induced in rats by intravenous administration of streptozotocin, and subsequently, a hexaquis(benzylammonium) decavanadate or sodium decavanadate unique dose was administered to the rats. […] After seven days of treatment, the dose was increased at 10 μmol/kg/day which was maintained for an additional ten days. […] Thus, glycemia in sodium decavanadate treated rats was approximately 450 mg/dl and glycemia of hexaquis(benzylammonium) decavanadate treated rats was approximately 250 mg/dl.
# (§1) Male Wistar rats weighting 180-220 g were purchased from Harlan (Interfauna Ibérica S.A., Spain). Diabetes was induced by a single intraperitoneal injection of a freshly prepared solution of streptozotocin (in some studies the dose was 45 mg/kg body weight and in some others 100 mg/kg body weight dissolved in 50 mM citrate buffer, pH 4.5). Only diabetic animals with glycemia above 300 mg/dl were used. The animals were housed in animal quarters at 22° C. with a 12 h light/12 h dark cycle and were fed ad libitum. All procedures used were approved by the animal ethical committee of the University of Barcelona, Spain. Male mice C57 BL/Ks bearing the db/db mutation (Jackson Laboratories, Bar Harbor, Me.) were purchased from Harlan France (Gannat, France). C57BL/6J male mice were assigned for 16 weeks to very high-fat diet containing (in kcal): 72% from fat, 28% from proteins and <1% from carbohydrates (Burcelin et al., 2002, Am. J. Physiol. Endocrinol. Metab 282: E834-E842).
# (§2) Osmotic minipumps delivering B6V10 (2.5 μmol/kg body wt/day) or decavanadate (2.5 μmol/kg body wt/day) were implanted subcutaneously in diabetic rats anaesthetised by ketamine hydrochloride (95 mg/kg) and xylasine (10 mg/kg). […] Glycemia was measured on arterio-venous blood collected from the tail vessels at 09:00 am for two weeks, before the administration of vanadate. Insulin concentrations were determined before and after treatment. In another set of experiments, B6V10 was orally administered at a single dose of 5 μmol/kg/day during the first week and 10 μmol/kg/day during 2 additional weeks by gastric gavage. A control group received the corresponding decavanadate salt in the absence of benzylamine. At the end of the treatment, animals were sacrificed and the liver, fat pad, heart and lung were kept at −80° C. and the plasma at −20° C. until their use for in vitro analysis.
# (§3) In glucose tolerance tests and in chronic treatments, circulating glucose concentrations were determined by a rapid glucose analyser (Accutrend® Sensor Comfort, Roche, Basel. Switzerland). Plasma insulin (IRI) concentration was determined by ELISA method using a kit obtained from Crystal Chem. Inc. (Downers Grove, Ill.). Plasma triglycerides (Biosystems, Barcelona, Spain) and NEFAS (Wako Chemicals, Neuss, Germany) were determined with standard […] methods.
# Chronic in vivo efficacy of B6V10 was evaluated in streptozotocin-induced diabetic rats and in db/db mice. Streptozotocin-induced (45 mg/kg) diabetic rats were subcutaneously treated with hexaquis(benzylammonium) decavanadate (2.5 μmol/kg) (B6V10, solid squares, FIG. 8A) or with decavanadate (2.5 μmol/kg) (V10, open circles, FIG. 8A) delivered subcutaneously by osmotic minipumps implanted in the dorsal region. Diabetic rats were also sham-operated (untreated, solid diamonds, FIG. 8A). […]
# [2] = system: streptozotocin-induced diabetic rats; assay: Chronic subcutaneous (osmotic minipump) treatment of streptozotocin-induced diabetic rats, glycemia; assay type: in vivo, rat; details: for effect on glycemia, in words: streptozotocin (45 mg/kg) diabetic rats, 2.5 μmol/kg/day subcutaneous by osmotic minipumps, about two weeks
# Experimental: FIG. 3 is a graphical illustration of hexaquis(benzylammonium) decavanadate chronic treatment effect on glycemia of diabetic rats by streptozotocin. In FIG. 3, [G] corresponds to the blood concentration of glucose (expressed in mg/dl) measured at different days of treatment (t/d). Diabetic rats were treated, by mini-osmotic pumps, with buffered solution (black diamonds), with hexaquis(benzylammonium) decavanadate (2.5 μmol/kg/day) (black squares) or with identical dose of sodium decavanadate (white circles).
# The effect of chronic administration of hexaquis(benzylammonium) decavanadate on glycemia from diabetic rats was determined. Diabetes was induced in rats by intravenous administration of streptozotocin, which destroys the β-pancreatic cells that produce insulin.
# as §1, §2, §3
# Chronic in vivo efficacy of B6V10 was evaluated in streptozotocin-induced diabetic rats and in db/db mice. Streptozotocin-induced (45 mg/kg) diabetic rats were subcutaneously treated with hexaquis(benzylammonium) decavanadate (2.5 μmol/kg) (B6V10, solid squares, FIG. 8A) or with decavanadate (2.5 μmol/kg) (V10, open circles, FIG. 8A) delivered subcutaneously by osmotic minipumps implanted in the dorsal region. Diabetic rats were also sham-operated (untreated, solid diamonds, FIG. 8A). […] These experiments were repeated using an oral administration protocol. Streptozotocin-induced (45 mg/kg) diabetic rats were orally treated with hexaquis(benzylammonium) decavanadate (5 μmol/kg from day 0 to day 7 and 10 μmol/kg/day from day 7 to day 17) (B6V10, solid squares, FIG. 8B) or received decavanadate (10 μmol/kg) (V10, open circles, FIG. 8B). […]
Substance,time at which decrease of hyperglycemia was detected ([1]; oral 5 μmol/kg/day),"effect on hyperglycemia, in words ([1]; oral 5 μmol/kg/day for seven days)","effect of the dosage increase on glycemia, in words ([1]; oral 10 μmol/kg/day for an additional ten days after seven days at 5 μmol/kg/day)",glycemia [1],"effect on glycemia over the whole oral treatment, in words [1]",time at which reduction of hyperglycemia was detected ([2]; 2.5 μmol/kg/day subcutaneous minipumps),glucose transport in adipocytes isolated from treated rats ([2]; adipocytes isolated at fourteen days of treatment),"effect on glycemia, in words [2]","effect on glycemia, in words ([2]; listed as hexaquis(benzylammonium) decavanadate)","effect on glycemia over the whole oral treatment, in words ([1]; listed as sodium decavanadate)","effect on glycemia, in words ([2]; listed as sodium decavanadate)"
hexaquis(benzylammonium) decavanadate [Example B6V10],after but two days of treatment,moderate decrease of hyperglycemia,additional decrease in glycemia,approximately 250 mg/dl,significant correction of hyperglycemia,after only four days of treatment,increased glucose transport under basal conditions equivalent to that seen in the presence of insulin,significant correction of hyperglycemia,rapid reduction of the hyperglycemia,,
"sodium decavanadate [Example V10, reference compound]",,,,approximately 450 mg/dl,did not alter glycemia,,,did not alter glycemia,,not affected substantially,did not modify substantially its glycemia
